Activity calls are given as the source filed them.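 Rule for the calls: active = AC50 no more than tenfold above the top dose tested, or full inhibition at every dose with a flat fit (cut at about 19 µM in these data); inconclusive = flat curve fit with inhibition between 30% and 70%, or poor fit; inactive = AC50 more than tenfold above the top dose tested.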
Tested on: HMLE_sh_eGFP viability, CellTiter-Glo luminescence, 72 h
Assay: cytotoxicity in HMLE control line with eGFP shRNA, dose response, counter-screen for HMLE_sh_ECad selective toxicity project, cell-based, HMLE_sh_eGFP, luminescence (AID 463074);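 note: counterscreen control line to flag general toxicity for the HMLE_sh_ECad screen; potency for loss of viability as luminescence drops below DMSO wells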

C[C@@H]1O[C@@H](O[C@H]2C[C@@H](O)[C@]3(CO)[C@H]4[C@H](O)C[C@]5(C)[C@@H](C6COC(=O)C6)CC[C@]5(O)[C@@H]4CC[C@]3(O)C2)[C@H](O)[C@H](O)[C@H]1O (stereo not given in full)
AC50: 0.74 µM

CCCCC(=O)Nc1nc(C)c(-c2csc(Nc3cc(OC)ccc3OC)n2)s1
AC50: 2.27 µM

CCOC(=O)c1ccc(Nc2cc(C)nc(-c3ccccc3)n2)cc1
AC50: 3.71 µM

CCN(Cc1ccccc1)c1ccc(/C=N/NC(=S)NC(C)C)cc1
AC50: 4.6 µM

Cc1cccc(NC(=S)N/N=C/c2c[nH]c3ccccc23)c1
AC50: 1.63 µM

Clc1ccc(-c2nnc(-c3ccccc3)c(-c3ccccc3)n2)cc1
AC50: 3.69 µM

CN1CCN(c2ccc(NC(=O)c3ccc(C#N)cc3F)cc2Cl)CC1
AC50: 19.7 µM

Cc1ccc(Nc2cc(C)c3ccc(O)cc3n2)cc1C
AC50: 9.16 µM

Cc1ccc(NC(=S)Nc2ccc(C(C)C)cc2)cc1S(=O)(=O)N1CCCCCC1
AC50: 3.82 µM

Cc1ccc2nc(NC(=O)c3cccc(-c4cc5ccccc5oc4=O)c3)sc2c1
AC50: > 19.5 µM (inactive)

CC(C)(C)[C@H](N)C(=O)N[C@H]1CCC2C3CC=C4C[C@@H](O)CC[C@]4(C)C3CC[C@@]21C (stereo not given in full)
AC50: 7.74 µM

CCCOc1c(OC)cccc1C1CC(=O)Nc2cc3c(cc21)OCCO3 (stereo not given)
AC50: 2.95 µM

CCCCCCSc1cc(-c2nc3cnccn3c2NCCCC)ccc1OC
AC50: 6.71 µM

Cc1ccn2c(NC3CCCCC3)c(-c3cccc(SC4CCCCC4)c3)nc2c1
AC50: 3.86 µM

CC(C)(C)OC(=O)NCc1ccc(NC(=O)c2nc[nH]c2C(=O)NCCCCNC(=O)c2[nH]cnc2C(=O)Nc2ccc(CNC(=O)OC(C)(C)C)cc2)cc1
AC50: 2.15 µM

O=C(O)c1ccc(CSc2nc(-c3ccc(Cl)cc3)cc(C(F)(F)F)n2)cc1
AC50: 9.94 µM

CC(C)c1ccc(N2C(=O)NC(=O)/C(=C/C=C/c3ccco3)C2=O)cc1
AC50: 2.29 µM

O=C1C2C3C=CC(C3)C2C(=O)N1c1ccc(N2CCN(c3ccccn3)CC2)c([N+](=O)[O-])c1 (stereo not given)
AC50: 3.42 µM

CCN1C(=O)/C(=C\c2ccncc2)SC1=Nc1ccc(C)c(C)c1
AC50: 6.82 µM

COc1cc(/C=C(/C#N)c2nc3ccccc3[nH]2)ccc1OCC(=O)Nc1ccccc1C
AC50: 1.06 µM

Cc1sc2ncnc(N3CCN(CCOc4ccc(Cl)cc4)CC3)c2c1C
AC50: 7.16 µM

Cc1ccn2c(NCc3ccccc3)c(-c3cccc(SC4CCCCC4)c3)nc2c1
AC50: 4.45 µM

Oc1ccccc1C1=NN(c2ccccc2)C(c2ccccc2)C1 (stereo not given)
AC50: 1.63 µM

CN1C(=O)/C(=C/c2cccc(Cl)c2)Sc2ccc(C(=O)NCc3cccnc3)cc21
AC50: 5.15 µM

CN(CC(=O)Nc1ccc(Cl)c(Cl)c1)CC(=O)Nc1ccc2c(c1)OCO2
AC50: 17.2 µM

C[C@@H]1CN([C@H](C)CO)C(=O)Cc2cc(NS(=O)(=O)c3ccc(Cl)cc3)ccc2O[C@H]1CN(C)Cc1ccc(C(F)(F)F)cc1
AC50: 3.18 µM

O=C1C2=C(NC(=S)NC2c2ccc(Cl)cc2)NC(c2ccc(Cl)cc2)N1c1ccc(Cl)cc1 (stereo not given)
AC50: 6.8 µM

COc1cc(/C=C/c2ccc3cccc(OC)c3n2)c(OC(C)=O)c([N+](=O)[O-])c1
AC50: 16.2 µM

COc1ccc(C(=O)/C=C/c2ccc(N3CCCCC3)c([N+](=O)[O-])c2)c(OC)c1
AC50: 6.6 µM

COc1ccc2nc(NC(=O)c3cccc(-c4cc5ccccc5oc4=O)c3)sc2c1
AC50: 4.88 µM

O=c1[nH]c2ccccc2n1C1CCN(CCCC(c2ccc(F)cc2)c2ccc(F)cc2)CC1
AC50: 6.27 µM

COc1ccc([N+](=O)[O-])cc1Nc1c2ccccc2nc2ccccc12
AC50: 1.43 µM

COC(=O)c1ccc(/C=C/c2c(-c3ccc(OC)cc3)oc3ccccc23)cc1
AC50: 5.95 µM

CC(C)Oc1cccc(C(=O)NC(=S)Nc2ccccc2N2CCOCC2)c1
AC50: 13.9 µM

O=C(/C(N=Nc1cccc(C(F)(F)F)c1)=C(/O)c1cccs1)C(F)(F)F
AC50: 2.17 µM

O=C(CSc1nc(-c2ccccc2)cc(C(F)(F)F)n1)c1cccc([N+](=O)[O-])c1
AC50: 20.4 µM

O=c1c2ccccc2nc2n1C1(CCCCC1)Cc1ccccc1-2
AC50: 4.03 µM

COc1ccc(/C=C/C(=O)c2ccc([N+](=O)[O-])o2)cc1
AC50: 2.87 µM

FC(F)(F)c1ccc(C2[C@H]3CN(Cc4cccnc4)[C@H](c4ccccc4)C34CC2(c2cccnc2)C4)cc1 (stereo not given in full)
AC50: 3.67 µM

O=C(Nc1nnc(-c2ccc(Cl)cc2)o1)c1nc2ccccc2s1
AC50: 5.29 µM

C=CCc1cccc(/C=N/NC(=O)c2ccc3nc[nH]c3c2)c1O
AC50: 6.2 µM

COC(=O)C(Cc1ccc(N(CCCl)CCCl)cc1)N=Cc1ccccc1O (stereo not given)
AC50: 2.54 µM

C=CCCC(=O)Nc1nc(C)c(-c2csc(Nc3cc(OC)ccc3OC)n2)s1
AC50: 1.02 µM

COc1ccc(-c2sc3ccc(N4CCOCC4)cc3c2C#CC(C)(C)O)cc1
AC50: 1.3 µM

O=C(CSc1nc2nc(-c3cccs3)cc(C(F)(F)F)c2c(=O)[nH]1)Nc1c(F)c(F)c(F)c(F)c1F
AC50: 3.43 µM

Cc1cc(C)n(Cc2ccc(NC(=O)c3ccc(COc4ccccc4Br)cc3)cc2)n1
AC50: 3.03 µM

Cc1ccc(-c2cc(C(=O)N3N=C(C(F)F)CC3(O)C(F)F)c3ccccc3n2)cc1C (stereo not given)
AC50: 4.55 µM

COc1ccc(NC(=O)c2cc(-c3ccccc3OC)on2)cc1
AC50: 0.983 µM

O=C(NNc1ccc(-c2csnn2)cc1)c1cc(Cl)cc(Cl)c1
AC50: 3.02 µM

Cc1ccccc1CNc1ccc(C(CC(N)=O)NC(=O)c2ccc(Br)cc2)cc1[N+](=O)[O-] (stereo not given)
AC50: 3.96 µM

O=c1c2c3c(sc2nc(NCCO)n1Cc1ccco1)CCCCC3
AC50: 2.01 µM

CN(C)N1C(N)=C(C#N)C(c2cccc3ccccc23)C2=C1CC(c1ccccc1)CC2=O (stereo not given)
AC50: 1.02 µM

C=C(Br)Cn1c(CCCC)nc2ccccc21
AC50: 0.645 µM

NC1=NC[C@@H](CC2CCCCC2)N1CCc1cc(C(F)(F)F)cc(C(F)(F)F)c1
AC50: 2.74 µM

COc1cc(NC(=O)c2cc3ccccc3cc2O)c(OC)cc1Cl
AC50: 1.17 µM

CC1=C(C(=O)OC2CCCCCCC2)C(c2cc3c(cc2Br)OCO3)CC(=O)N1 (stereo not given)
AC50: 2.57 µM

O=C(Nc1ccc(Br)c(C(F)(F)F)c1)c1ccc(C(F)(F)F)cc1
AC50: 3.03 µM

CCCn1nc([N+](=O)[O-])c(C(C#N)c2nc3ccccc3o2)c(Cl)c1=O (stereo not given)
AC50: 5.81 µM

CCOC(=O)c1c(NC(C)=O)sc2c1CCC(C=O)=C2Sc1ccccc1
AC50: 3.63 µM

COc1ccc2c(c1)-c1nc(NC(=O)c3cccs3)sc1CC2
AC50: 11.3 µM

Oc1ccccc1/C=N/Nc1nccnc1Cl
AC50: 5.91 µM

O=C(/C=C/c1ccc(F)cc1)c1cc(Br)ccc1O
AC50: 14.1 µM

O=C(NC(=S)Nc1ccccc1N1CCCCC1)c1ccc(F)cc1Cl
AC50: 2.84 µM

C=C(CC1([C@@H](NP(=O)(c2ccccc2)c2ccccc2)[C@H]2C[C@@H]2CCCC)CC1)c1ccccc1
AC50: 4.57 µM

O=C(Nc1ccncc1)c1cc(-c2cccc(Br)c2)nc2ccccc12
AC50: 5.99 µM

OC(COc1cccc2ccccc12)CN1CCN(c2ccc(Cl)cc2)CC1 (stereo not given)
AC50: 7.09 µM

COc1ccc(-c2nc3cnccn3c2NC2CCCCC2)cc1-c1cccc(Cl)c1
AC50: 6.62 µM

O=C(NC(=S)Nc1cccc(Cl)c1N1CCCCC1)c1ccc2c(c1)OCCO2
AC50: 1.52 µM

CCCCCCSc1ccc([C@H]2N[C@@](C)(C(=O)OC)[C@H]3C(=O)N(CC)C(=O)[C@@H]23)cc1
AC50: 19.8 µM

COc1ccc(OC)c(-c2nnc3n2N=C(c2ccc(OC(F)F)c(OCC4CC4)c2)CS3)c1
AC50: 4.26 µM

CCN1CCN(CCCNC(=O)c2ccc(/C=C3/Sc4ccccc4N(Cc4ccccc4F)C3=O)cc2)CC1
AC50: 3.14 µM

CCC(C)n1c(-c2cccs2)nc2nc3ccccc3nc21 (stereo not given)
AC50: 15.5 µM

COc1cc2nc(Nc3ccc(C)c(Cl)c3)nc(N)c2cc1OC
AC50: 6.97 µM

Cc1cccc(N/N=C/c2ccccc2O)c1
AC50: 18.6 µM

CC(C)(CN1CCN(Cc2ccccc2)CC1)NS(=O)(=O)c1ccccc1
AC50: 8.78 µM

Cc1cc(N2CCN(c3ccc(C(F)(F)F)cc3[N+](=O)[O-])CC2)c2ccccc2n1
AC50: 1.38 µM

COc1ccc(C(=O)C2CCCN(C3CSCCSC3)C2)c(OC)c1 (stereo not given)
AC50: 4.74 µM

c1ccc(NNC2=NCCCCC2)cc1
AC50: 2.89 µM

COc1cccc(-c2sc3ccc(OC)cc3c2C#CC2(O)CCCCC2)c1
AC50: 7.25 µM

N#CCc1ccc(NC(=O)Nc2cccc(Cl)c2)cc1
AC50: 20 µM

COC(=O)c1sc2nc(N3CCCCC3)c3c(c2c1N)CCCC3
AC50: 4.94 µM

Cc1cc(Nc2cccc(F)c2)nc(-c2ccccc2O)n1
AC50: 6.41 µM

O=Cc1cc2ccccc2nc1SCc1ccc(Cl)cc1
AC50: 5.69 µM

CCc1ccc(S(=O)(=O)Nc2ccc(O)c3ccccc23)cc1
AC50: 14.7 µM

O=Nc1c(O)n(Cc2ccc(Cl)c(Cl)c2)c2ccccc12
AC50: 6.85 µM

Cc1ccc(NC(=O)NCC2CCN(Cc3cccc(Cl)c3)CC2)cc1Cl
AC50: 6.9 µM

Cc1nc2c3cc(F)ccc3n(Cc3ccccc3)c2s1
AC50: 0.825 µM

O=c1nc(/C=C/c2ccc(Cl)cc2Cl)cc(C(F)(F)F)[nH]1
AC50: 1.55 µM

O=C(Nc1cccc(NC(=O)c2ccc([N+](=O)[O-])o2)c1)c1ccco1
AC50: 7.23 µM

COc1cc2nc(CN3CC=C(c4ccccc4)CC3)[nH]c(=O)c2cc1OC
AC50: 3.39 µM

COc1ccc(C(=O)Nc2ccc(OCC(F)(F)C(F)F)c(C(F)(F)F)c2)cc1OC
AC50: 5.48 µM

COc1ccc2sc(-c3ccccc3OC)c(-c3ccc(OCCN4CCCC4)cc3)c2c1
AC50: 3.74 µM

CN1CCN(c2ccc(NC(=O)c3ccc(Cl)cc3)cn2)CC1
AC50: > 19.5 µM (inactive)

COc1ccc(-c2sc3ccccc3c2C#CC2(O)CCCCC2)cc1
AC50: 5.38 µM

Cc1cc(Nc2nc(Cl)c(Cl)cc2Cl)n(-c2ccccc2)n1
AC50: 11.3 µM

CN1CCC(OC(=O)c2cccc(Cl)c2)CC1
AC50: 3.33 µM

CCN(CC)S(=O)(=O)c1ccc2c(c1)C(=NO)c1cc(S(=O)(=O)N(CC)CC)ccc1-2
AC50: 0.756 µM

O=C1C(C2=NC(c3ccccn3)C3C(=O)N(c4ccc(Cl)cc4Cl)C(=O)C23)=C(O)c2ccccc21 (stereo not given)
AC50: > 19.5 µM (inactive)

Cc1cccc(NC(=S)NCC(C)CSc2ccc(Cl)cc2)c1 (stereo not given)
AC50: 7.05 µM

COc1cc(F)c(C2=CC(=O)C[C@H](c3ccc(Cl)cc3)C2)cc1F
AC50: 3.48 µM

O=C(N/N=C/c1ccc[nH]1)c1sc2ccccc2c1Cl
AC50: 13.4 µM

CN(Cc1ccco1)c1ncnc2ccc(-c3ccc4c(ccn4C)c3)cc12
AC50: 3.01 µM

CCOC(=O)C1=C(C)NC(C)=C(C(=O)OCC)C1c1ccccc1/C=C/C(=O)OC(C)(C)C
AC50: 4.67 µM

O=C(Nc1ccc(OC(F)F)c(Cl)c1)Nc1ccc2c(c1)OCO2
AC50: 3.14 µM

O=C(c1ccccc1)c1c[nH]c(C(=O)NNc2ccccc2)c1
AC50: 1.53 µM
